One test addresses T1, CLB2 (Homo sapiens, UniProt P22676).
T1 construct: made in house; host or cells: T7 phage amplified in E. coli
T1 sequence (P22676 1-271): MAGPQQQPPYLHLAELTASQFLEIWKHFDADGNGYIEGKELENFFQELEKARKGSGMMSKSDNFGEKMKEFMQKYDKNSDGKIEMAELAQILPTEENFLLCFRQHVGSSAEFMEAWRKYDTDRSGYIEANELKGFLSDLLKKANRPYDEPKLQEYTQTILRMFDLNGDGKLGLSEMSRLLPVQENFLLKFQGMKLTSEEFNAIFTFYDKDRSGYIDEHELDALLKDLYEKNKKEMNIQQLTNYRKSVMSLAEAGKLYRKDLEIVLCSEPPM
The experiment in a line: T7 phage display competition binding assay (immobilized atorvastatin), CLB2. As to conditions: soluble competitor vs atorvastatin-coated affinity matrix; T7 phage displaying CLB2. The source says: (§1) The T7 phage displaying human PDE6D and CLB2 were obtained following the procedure of WO 01/18234, published Mar. 15, 2001, and U.S. patent applications Ser. No. 10/115,442, “Phage Display Affinity Filter and Forward Screen,” filed Apr. 2, 2002 and Ser. No. 10/214,654, “Uncoupling DNA Insert Propagation and Protein Display,” filed Aug. 7, 2002. […] The phage eluate was then amplified by growth in E. coli and the affinity enrichment procedure was repeated.
(§2) The dissociation constants, Kd's, for the interaction between the pyrrole compounds and the novel targets were obtained following the procedure of the co-pending patent applications U.S. Ser. Nos. 10/115,442, “Phage Display Affinity Filter and Forward Screen,” filed Apr. 2, 2002 and 60/480,587, “Protein Family Profiling Tool and Methods,” filed Jun. 20, 2003.

The next test concerns the target T2, HMG-CoA reductase (Homo sapiens, UniProt P04035).
T2 sequence (P04035 1-888): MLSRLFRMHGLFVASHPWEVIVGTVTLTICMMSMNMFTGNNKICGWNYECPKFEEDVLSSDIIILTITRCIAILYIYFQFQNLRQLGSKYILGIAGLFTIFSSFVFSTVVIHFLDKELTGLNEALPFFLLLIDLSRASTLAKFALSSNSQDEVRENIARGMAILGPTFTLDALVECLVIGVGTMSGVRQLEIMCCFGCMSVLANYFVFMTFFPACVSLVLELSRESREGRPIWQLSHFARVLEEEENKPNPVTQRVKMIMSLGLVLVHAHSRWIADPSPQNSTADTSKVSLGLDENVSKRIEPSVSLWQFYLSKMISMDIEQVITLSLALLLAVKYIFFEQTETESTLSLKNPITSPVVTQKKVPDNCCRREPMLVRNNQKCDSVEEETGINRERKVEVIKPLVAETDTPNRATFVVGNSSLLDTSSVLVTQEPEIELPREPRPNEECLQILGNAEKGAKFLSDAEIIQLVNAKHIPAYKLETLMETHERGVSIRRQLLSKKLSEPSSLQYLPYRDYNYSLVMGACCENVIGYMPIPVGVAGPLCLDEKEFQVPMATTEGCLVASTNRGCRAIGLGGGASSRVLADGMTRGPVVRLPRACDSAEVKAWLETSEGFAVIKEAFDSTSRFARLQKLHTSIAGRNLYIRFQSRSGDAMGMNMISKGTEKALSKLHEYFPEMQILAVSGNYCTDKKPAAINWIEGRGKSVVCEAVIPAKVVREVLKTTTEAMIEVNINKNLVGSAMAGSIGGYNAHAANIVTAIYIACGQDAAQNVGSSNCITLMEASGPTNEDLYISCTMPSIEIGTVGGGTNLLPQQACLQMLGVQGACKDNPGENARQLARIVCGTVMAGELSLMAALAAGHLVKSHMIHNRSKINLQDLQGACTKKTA
Kind of test: enzymatic activity-based HMG-CoA reductase assay. As to conditions: concentrations up to 4 μM. The class given is biochemical. The method, then: In addition, compounds 781430, 781066, 780780, 780754, 779974, 781456, 782236, 782756, 783250 and 780520 were tested in enzymatic activity-based HMG-CoA reductase assays. […] Blank cells indicate there was no detectable interaction while the “nd” designation indicates the Kd was not determined.

The target in test [1] is T3, PDE6D (Homo sapiens, UniProt O43924). Kind of test: phage-based competition binding screen at 2 μM. Also on record: made in house; host or cells: phage. The settings on record: 2 μM competitor, duplicate. The method, then:
Forty-four molecules were screened for PDE6D binding activity in a standard phage-based competition binding assay, as described in co-pending U.S. patent applications Ser. No. 10/115,442, filed 2 Apr. 2002, and Ser. No. 10/406,797 filed on 2 Apr. 2003 (or PCT International Application PCT/US03/10247 filed 2 Apr. 2003). All compounds were screened in duplicate (duplicate sets of bars) at a concentration of 2 μM.

Test [2] deals with T3, PDE6D. The experiment in a line: T7 phage display competition binding assay (immobilized atorvastatin), PDE6D. Also on record: made in house; host or cells: T7 phage amplified in E. coli. The settings on record: soluble competitor vs atorvastatin-coated affinity matrix; T7 phage displaying human PDE6D.
Description: as §1, §2

For test [3], the target named is T4, PDE6D::HA11 fusion protein (Homo sapiens, UniProt O43924).
T4 construct: made in house; host or cells: coupled transcription-translation in rabbit reticulocyte lysate (pTNT vector)
Kind of test: Binding assay with rabbit reticulocyte lysate-produced human PDE6D. As to conditions: absence or presence of 10 μM non-immobilized atorvastatin; dot blot.

The next test addresses T5, rat liver NQO2 (Rattus norvegicus, UniProt Q6AY80).
T5 construct: from tissue; host or cells: rat liver protein extract
T5 sequence (Q6AY80 1-231): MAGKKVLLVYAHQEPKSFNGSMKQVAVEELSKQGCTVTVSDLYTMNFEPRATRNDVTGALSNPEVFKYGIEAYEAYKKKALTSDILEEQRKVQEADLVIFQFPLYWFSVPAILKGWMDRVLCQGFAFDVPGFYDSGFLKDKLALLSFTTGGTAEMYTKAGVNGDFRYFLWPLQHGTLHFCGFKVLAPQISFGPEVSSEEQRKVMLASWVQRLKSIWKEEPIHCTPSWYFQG
The experiment in a line: Binding curve assay, rat liver NQO2 and atorvastatin bait. As to conditions: rat liver extract; semi-quantitative, densitometric scanning of silver-stained gel; read-out: apparent Kd NQO2.

Test [4] concerns the target T3, PDE6D. The experiment in a line: Binding assay with E. coli-expressed human PDE6D. Also on record: made in house; host or cells: T7 phage amplified in E. coli. As to conditions: 10 μM competitors; dot blot. Here is the method:
The full-length coding sequence for human PDE6D was cloned into the pRSET vector for E. coli expression. The PDE6D coding sequence was fused in-frame with a His tag for purification purposes. […] The experiments were performed in duplicate. The data were obtained by loading the eluates from the binding experiment on a dot blot apparatus and subsequent detection with a PDE6D-specific antibody.

As to `CC(C)c1[nH]c(-c2ccc(F)cc2)c(-c2ccccc2)c1C(=O)Nc1ccccc1` [Compound 781430], the figures for the Kd at CLB2 and at PDE6D [2] were 940 nM and 75 nM, respectively. The “inhibition of the activity of HMG-CoA reductase” value against HMG-CoA reductase is “none of the tested compounds inhibited”. For the same compound, on PDE6D [1], the “fraction of PDE6D-displaying phage bound to immobilized atorvastatin (screen outcome)” value is listed as “candidate lead compounds”.

In the case of `CC(C)c1c(C(=O)Nc2ccccc2)c(-c2ccccc2)c(-c2ccc(F)cc2)n1CC(O)C(O)C(O)C(O)CO` (stereo not drawn) [Compound 782236], the “inhibition of the activity of HMG-CoA reductase” value at HMG-CoA reductase was “none of the tested compounds inhibited”. On PDE6D [2], this compound showed a Kd of 269 nM.

In the case of `CC(C)c1c(C(=O)Nc2ccccc2)c(-c2ccccc2)c(-c2ccc(F)cc2)n1CC[C@@H](O)C[C@@H](O)CC(=O)O` [atorvastatin, reference compound], the “binding of PDE6D::HA11 fusion protein to immobilized atorvastatin bait” value in test [3] was “PDE6D bound to atorvastatin”. For the same compound, on rat liver NQO2, the Kd was approximately 500 nM. Also, the “binding of E. coli expressed human PDE6D to immobilized atorvastatin bait” value on PDE6D [4] is recorded as “E. coli expressed human PDE6D binds to atorvastatin”.

The values are drawn from patent publication US7323490B2, “Pyrrole compounds and uses thereof” (Ambit Biosciences Corporation, priority 2003, dated 2008).
